Results as given in the NIST ThermoML archive (doi:10.1016/j.tca.2016.04.007).
± gives the expanded uncertainty stated by the source.

Key:
[1] = Crystal; DTA
[2] = Molar enthalpy of transition or fusion; conditions: Crystal; DSC

For `CCCCCCCCCCCCCCCCBr` [1-bromohexadecane], the Normal melting temperature [1] was 14.20 ± 3 °C and the “Molar enthalpy of transition or fusion” value [2] was 10.9 ± 0.287 kcal/mol.
With `CCCCCCCCCCCCCCCCCCBr` [1-bromooctadecane] the Normal melting temperature [1] was 23.50 ± 3 °C and the “Molar enthalpy of transition or fusion” value [2] was 12.9 ± 0.311 kcal/mol.
